Source: patent US9862684B2, “Modulation of K2P channels” (The Regents of the University of California, priority 2013, dated 2018)
“And” between values parts separate entries of the source, which are not always exact repeats. Equal values may be shown once.

Columns and labels:
Format in all cases: cell-based, Murine
[1] = target: T1, K2P5.1 (TASK-2) (Mus musculus, UniProt F6V9U5); test: Two-electrode voltage clamp, Xenopus oocytes expressing K2P5.1 (TASK-2)
T1 construct: expressed in transfected cells; host or cells: Xenopus oocytes
T1 sequence (F6V9U5 1-502): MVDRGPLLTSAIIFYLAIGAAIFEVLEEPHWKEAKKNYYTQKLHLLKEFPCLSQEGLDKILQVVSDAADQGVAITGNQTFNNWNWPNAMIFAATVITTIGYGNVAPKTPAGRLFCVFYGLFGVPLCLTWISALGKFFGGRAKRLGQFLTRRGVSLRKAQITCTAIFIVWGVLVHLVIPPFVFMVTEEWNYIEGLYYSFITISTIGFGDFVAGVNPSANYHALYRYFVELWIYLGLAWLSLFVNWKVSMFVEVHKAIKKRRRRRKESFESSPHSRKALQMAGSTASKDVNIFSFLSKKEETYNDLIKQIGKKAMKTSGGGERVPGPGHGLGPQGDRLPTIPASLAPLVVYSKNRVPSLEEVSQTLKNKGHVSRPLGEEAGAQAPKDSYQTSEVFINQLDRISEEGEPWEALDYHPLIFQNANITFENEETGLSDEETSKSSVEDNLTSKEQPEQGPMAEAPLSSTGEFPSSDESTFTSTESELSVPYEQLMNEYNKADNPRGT
Method: (§1) FIG. 7 ML67-33 is a selective activator of heat- and mechanosensitive K2P channels. a-f, Exemplar I-V curves showing the effect of ML67-33 on a, K2P10.1 (TREK-2), b, K2P4.1 (TRAAK), c, K2P3.1 (TASK-1), d, K2P9.1 (TASK-3), e, K2P5.1 (TASK-2), and f, K2P18.1 (TRESK) measured in Xenopus oocytes in 2 mM [K^+]o pH 7.4. Currents were elicited by a voltage ramp from −150 to 50 mV, from a holding potential of −80 mV. g, Quantification of the effect of ML67-33 on the indicated channels. Data (mean±s.e., n≧6, N≧2) was normalized to basal channel activity and fitted to the Hill equation. […] Error bars indicate s.e., n≧6, N≧2.
(§2) Murine K2P channels were cloned into pGEMHE/pMO {Bagriantsev, 2011}, IRES-GFP (Invitrogen), or pYES2-MET25 (high copy 2μ, URA3) {Minor, 1999} for expression in oocytes, HEK-293T cells, and yeast, respectively, using standard molecular biology procedures, and verified by DNA sequencing.
(§3) Two-electrode voltage clamp recordings were performed from defolliculated stage V-VI Xenopus oocytes 24-48 hours after injection with 0.015-6.0 ng cRNA, using microelectrodes (0.3-3.0 MΩ) filled with 3M KCl. Data was acquired using the GeneClamp 500B (MDS Analytical Technologies) amplifier controlled by the pClamp software (Molecular Devices), and digitized at 1 kHz using Digidata 1332A (MDS Analytical Technologies). […]

[2] = target: T2, K2P4.1 (TRAAK) (Mus musculus, UniProt O88454); test: Two-electrode voltage clamp, Xenopus oocytes expressing K2P4.1 (TRAAK)
T2 construct: expressed in transfected cells; host or cells: Xenopus oocytes
T2 sequence (O88454 1-398): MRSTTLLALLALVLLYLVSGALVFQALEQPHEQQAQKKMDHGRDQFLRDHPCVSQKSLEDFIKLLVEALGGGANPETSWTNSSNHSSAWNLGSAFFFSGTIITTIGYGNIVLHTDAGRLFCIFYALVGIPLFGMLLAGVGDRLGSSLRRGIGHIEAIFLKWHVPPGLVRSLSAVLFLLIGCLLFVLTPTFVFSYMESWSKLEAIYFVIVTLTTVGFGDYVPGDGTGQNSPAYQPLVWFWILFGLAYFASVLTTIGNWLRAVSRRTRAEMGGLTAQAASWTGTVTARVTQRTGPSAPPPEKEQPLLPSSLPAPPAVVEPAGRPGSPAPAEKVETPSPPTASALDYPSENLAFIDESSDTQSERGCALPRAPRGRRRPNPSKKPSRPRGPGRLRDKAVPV
Method: as §1, §2, §3

[3] = target: T3, K2P9.1 (TASK-3) (Mus musculus, UniProt Q3LS21); test: Two-electrode voltage clamp, Xenopus oocytes expressing K2P9.1 (TASK-3)
T3 construct: expressed in transfected cells; host or cells: Xenopus oocytes
Method: as §1, §2
Two-electrode voltage clamp recordings were performed from defolliculated stage V-VI Xenopus oocytes 24-48 hours after injection with 0.015-6.0 ng cRNA, using microelectrodes (0.3-3.0 MΩ) filled with 3M KCl. Data was acquired using the GeneClamp 500B (MDS Analytical Technologies) amplifier controlled by the pClamp software (Molecular Devices), and digitized at 1 kHz using Digidata 1332A (MDS Analytical Technologies). Recording solutions (mM): 2K (96 NaCl, 2 KCl, 1.8 CaCl2, 2 MgCl2), 90K (90 KCl, 8 NaCl, 1.8 CaCl2, 2 MgCl2), were buffered 5 mM HEPES pH 7.4. For K2P recordings, currents we elicited by a 1 second long ramp from −150 to +50 mV from a holding potential of −80 mV (2K), or −100 to +50 mV from a holding potential of 0 mV (90K). For KCNQ2 recordings, currents were elicited by a step protocol from −120 to 60 mV, in 20 mV increments, from a holding potential of −80 mV. Patch-clamp recordings from HEK-293T cells were performed using microelectrodes (2-3 MΩ) filled with 1M KCl. Data was acquired using the Axopatch 200B amplifier controlled by pClamp software, and digitized at 1 kHz using Digidata 1332A. […]

[4] = at 100 μM (FIG. 7 legend), ** in Table 1

T3 sequence (Q3LS21 whole entry): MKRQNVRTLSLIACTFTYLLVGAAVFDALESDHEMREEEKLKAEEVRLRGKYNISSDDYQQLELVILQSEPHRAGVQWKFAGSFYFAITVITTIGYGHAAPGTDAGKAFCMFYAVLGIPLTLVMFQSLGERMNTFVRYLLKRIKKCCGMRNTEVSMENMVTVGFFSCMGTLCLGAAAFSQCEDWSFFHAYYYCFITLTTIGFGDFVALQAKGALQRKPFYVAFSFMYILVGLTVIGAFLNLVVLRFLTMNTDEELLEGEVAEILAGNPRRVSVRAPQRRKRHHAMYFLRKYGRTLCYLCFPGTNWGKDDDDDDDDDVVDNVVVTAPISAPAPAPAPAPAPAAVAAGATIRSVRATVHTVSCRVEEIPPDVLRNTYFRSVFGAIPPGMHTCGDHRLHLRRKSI

CC1(C)c2cc(Cl)ccc2N(CCc2nnn[nH]2)c2ccc(Cl)cc21 [ML67-33, 2,7-dichloro-9,9-dimethyl-10-[2-(1H-tetrazol-5-yl)ethyl]acridine]
functional effect (in words) ([1]; applied at 100 μM): little or no functional effects
Emax (fold) [1, 4]: 1.7±0.3 fold
EC50 ([2]; Xenopus oocytes, 2 mM [K+]o pH 7.4): 27.3 ± 1.2 µM
Emax (fold) [2, 4]: 14.7±1.1 fold and 14.7±1.12 fold
functional effect (in words) ([3]; applied at 100 μM): little or no functional effects
Emax at 100 μM ([3]; at 100 μM (FIG. 7 legend)): 2.0±0.1
Emax (fold) at 150 μM ([3]; at 150 μM): 2.1 ± 0.4 at 150 μM fold
